{"source": "patent US20090018111A1", "about": "“Novel Antimicrobial Medicament” (priority 2004, published 2009)", "assay_in_all_cases": "Sensitivity test (agar dilution)", "assay_type_in_all_cases": "cell-based, Staphylococcus aureus", "key": {"[1]": {"system": "S. aureus 209P", "settings": "for MIC: Staphylococcus aureus, 209P", "procedure,_shortened": "(§1)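 Strains were grown overnight at 37° C, brought to about 10^6 CFU/ml in gelatin-buffered saline, and ~5 μl inoculated onto MHA plates carrying two-fold dilution series of the test drug alone or in combination, following the Japan Chemotherapeutic Society agar dilution standard.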"}, "[2]": {"system": "S. aureus MS94088 (hetero-MRSA)", "settings": "Staphylococcus aureus, MRSA", "procedure,_shortened": "as §1"}, "[3]": {"system": "S. aureus SP-7928 (homo-MRSA)", "procedure,_shortened": "as §1"}, "[4]": {"settings": "Concomitant (IPM:SM = 1:1), read-out: MIC"}, "[5]": {"settings": "Concomitant (MEPM:SM = 1:1), read-out: MIC"}, "[6]": {"settings": "Concomitant (MEPM:SM = 1:2), read-out: MIC"}, "[7]": {"settings": "Concomitant (MEPM:SM = 1:4), read-out: MIC"}, "[8]": {"settings": "Concomitant drug (MEPM:SM = 2:1), read-out: MIC"}}, "note": "Like-named read-outs stand apart in the source and are kept apart here.", "data": [{"smiles": "C[C@H]1C=C(c2csc(SC3=C(C(=O)O)N4C(=O)[C@H]([C@@H](C)O)[C@H]4[C@H]3C)n2)CN1", "note": "[SM, (4R,5S,6S)-6-[(1R)-1-Hydroxyethyl]-4-methyl-3-({4-[(5S)-5-methyl-2,5-dihydro-1H-pyrrol-3-yl]-1,3-thiazol-2-yl}sulfanyl)-7-oxo-1-azabicyclo[3.2.0]hept-2-ene-2-carboxylic acid]", "values": [{"measurement": "MIC", "setting": "[1]; Concomitant (AZT:SM = 1:1), S. aureus 209P, read-out: MIC concomitant", "value": 0.008, "unit": "µg/mL"}, {"measurement": "MIC", "setting": "[1]; Concomitant (BIPM:SM = 1:1), S. aureus 209P, read-out: MIC concomitant", "value": 0.008, "unit": "µg/mL"}, {"measurement": "MIC", "setting": "[1]; Concomitant (CAZ:SM = 1:1), S. aureus 209P, read-out: MIC concomitant", "value": 0.004, "unit": "µg/mL"}, {"measurement": "MIC", "setting": "[1]; Concomitant (CPFX:SM = 1:1), S. aureus 209P, read-out: MIC concomitant", "value": 0.008, "unit": "µg/mL"}, {"measurement": "MIC", "setting": "[1]; Concomitant (DRPM:SM = 1:1), S. aureus 209P, read-out: MIC concomitant", "value": 0.004, "unit": "µg/mL"}, {"measurement": "MIC", "setting": "[1]; [4]", "value": 0.004, "unit": "µg/mL"}, {"measurement": "MIC", "setting": "[1]; [5]", "value": "≤ 0.016", "unit": "µg/mL"}, {"measurement": "MIC", "setting": "[1]; [6]", "value": "≤ 0.031", "unit": "µg/mL"}, {"measurement": "MIC", "setting": "[1]; [7]", "value": "≤ 0.063", "unit": "µg/mL"}, {"measurement": "MIC", "setting": "[1]; Concomitant (PAPM:SM = 1:1), S. aureus 209P, read-out: MIC concomitant", "value": 0.004, "unit": "µg/mL"}, {"measurement": "MIC", "setting": "[1]; Concomitant (PIPC:SM = 1:1), S. aureus 209P, read-out: MIC concomitant", "value": 0.004, "unit": "µg/mL"}, {"measurement": "MIC", "setting": "[1]; [8]", "value": "≤ 0.008", "unit": "µg/mL"}, {"measurement": "MIC", "setting": "[1]; alone, read-out: MIC", "value": "≤ 0.008", "unit": "µg/mL"}, {"measurement": "MIC", "setting": "[1]; drug alone, S. aureus 209P, read-out: MIC alone", "value": 0.008, "unit": "µg/mL"}, {"measurement": "MIC alone", "setting": "[1]; drug alone, S. aureus 209P", "value": 0.004, "unit": "µg/mL"}, {"measurement": "MIC", "setting": "[2]; Concomitant (AZT:SM = 1:1), S. aureus MS94088 (hetero-MRSA), read-out: MIC concomitant", "value": 0.25, "unit": "µg/mL"}, {"measurement": "MIC", "setting": "[2]; Concomitant (BIPM:SM = 1:1), S. aureus MS94088 (hetero-MRSA), read-out: MIC concomitant", "value": 0.25, "unit": "µg/mL"}, {"measurement": "MIC", "setting": "[2]; Concomitant (CAZ:SM = 1:1), S. aureus MS94088 (hetero-MRSA), read-out: MIC concomitant", "value": 0.25, "unit": "µg/mL"}, {"measurement": "MIC", "setting": "[2]; Concomitant (CPFX:SM = 1:1), S. aureus MS94088 (hetero-MRSA), read-out: MIC concomitant", "value": 0.125, "unit": "µg/mL"}, {"measurement": "MIC", "setting": "[2]; Concomitant (DRPM:SM = 1:1), S. aureus MS94088 (hetero-MRSA), read-out: MIC concomitant", "value": 0.25, "unit": "µg/mL"}, {"measurement": "MIC", "setting": "[2]; [4]", "value": 0.25, "unit": "µg/mL"}, {"measurement": "MIC", "setting": "[2]; [5]", "value": 0.25, "unit": "µg/mL"}, {"measurement": "MIC", "setting": "[2]; [6]", "value": 0.25, "unit": "µg/mL"}, {"measurement": "MIC", "setting": "[2]; [7]", "value": 0.25, "unit": "µg/mL"}, {"measurement": "MIC", "setting": "[2]; Concomitant (PAPM:SM = 1:1), S. aureus MS94088 (hetero-MRSA), read-out: MIC concomitant", "value": 0.25, "unit": "µg/mL"}, {"measurement": "MIC", "setting": "[2]; Concomitant (PIPC:SM = 1:1), S. aureus MS94088 (hetero-MRSA), read-out: MIC concomitant", "value": 0.125, "unit": "µg/mL"}, {"measurement": "MIC", "setting": "[2]; [8]", "value": 0.25, "unit": "µg/mL"}, {"measurement": "MIC", "setting": "[2]; alone, read-out: MIC", "value": 0.25, "unit": "µg/mL"}, {"measurement": "MIC", "setting": "[2]; drug alone, S. aureus MS94088 (hetero-MRSA), read-out: MIC alone", "value": 0.25, "unit": "µg/mL"}, {"measurement": "MIC", "setting": "[3]; Staphylococcus aureus, MRSA, Concomitant (AZT:SM = 1:1), S. aureus SP-7928 (homo-MRSA), read-out: MIC concomitant", "value": 2, "unit": "µg/mL"}, {"measurement": "MIC", "setting": "[3]; Staphylococcus aureus, MRSA, Concomitant (BIPM:SM = 1:1), S. aureus SP-7928 (homo-MRSA), read-out: MIC concomitant", "value": 2, "unit": "µg/mL"}, {"measurement": "MIC", "setting": "[3]; Staphylococcus aureus, MRSA, Concomitant (CAZ:SM = 1:1), S. aureus SP-7928 (homo-MRSA), read-out: MIC concomitant", "value": 1, "unit": "µg/mL"}, {"measurement": "MIC", "setting": "[3]; Staphylococcus aureus, MRSA, Concomitant (CPFX:SM = 1:1), S. aureus SP-7928 (homo-MRSA), read-out: MIC concomitant", "value": 0.25, "unit": "µg/mL"}, {"measurement": "MIC", "setting": "[3]; Staphylococcus aureus, MRSA, Concomitant (DRPM:SM = 1:1), S. aureus SP-7928 (homo-MRSA), read-out: MIC concomitant", "value": 1, "unit": "µg/mL"}, {"measurement": "MIC", "setting": "[3]; Staphylococcus aureus, MRSA, Concomitant (IPM:SM = 1:1), read-out: MIC", "value": 2, "unit": "µg/mL"}, {"measurement": "MIC", "setting": "[3]; Staphylococcus aureus, MRSA, Concomitant (MEPM:SM = 1:1), read-out: MIC", "value": 1, "unit": "µg/mL"}, {"measurement": "MIC", "setting": "[3]; Staphylococcus aureus, MRSA, Concomitant (MEPM:SM = 1:2), read-out: MIC", "value": 2, "unit": "µg/mL"}, {"measurement": "MIC", "setting": "[3]; Staphylococcus aureus, MRSA, Concomitant (MEPM:SM = 1:4), read-out: MIC", "value": 2, "unit": "µg/mL"}, {"measurement": "MIC", "setting": "[3]; Staphylococcus aureus, MRSA, Concomitant (PAPM:SM = 1:1), S. aureus SP-7928 (homo-MRSA), read-out: MIC concomitant", "value": 2, "unit": "µg/mL"}, {"measurement": "MIC", "setting": "[3]; Staphylococcus aureus, MRSA, Concomitant (PIPC:SM = 1:1), S. aureus SP-7928 (homo-MRSA), read-out: MIC concomitant", "value": 1, "unit": "µg/mL"}, {"measurement": "MIC", "setting": "[3]; Staphylococcus aureus, MRSA, Concomitant drug (MEPM:SM = 2:1), read-out: MIC", "value": 1, "unit": "µg/mL"}, {"measurement": "MIC", "setting": "[3]; Staphylococcus aureus, MRSA, alone, read-out: MIC", "value": 1, "unit": "µg/mL"}, {"measurement": "MIC", "setting": "[3]; Staphylococcus aureus, MRSA, drug alone, S. aureus SP-7928 (homo-MRSA), read-out: MIC alone", "value": 2, "unit": "µg/mL"}, {"measurement": "MIC", "setting": "[3]; alone", "value": 2, "unit": "µg/mL"}, {"measurement": "MIC alone", "setting": "[3]; drug alone, S. aureus SP-7928 (homo-MRSA)", "value": 1, "unit": "µg/mL"}]}]}
